{
  "source": "patent US10696951B2",
  "about": "“Method for culturing pluripotent stem cells” (JTEC Corporation, priority 2014, dated 2020)",
  "system": "253G1 cells",
  "assay": "Rotary culture of 253G1 cells with RWV bioreactor in 10 mL vessel: spheroid formation and proliferation rate",
  "type": "cell-based, human",
  "settings": "for Proliferation rate: 5 days, detached with 5 mM EDTA and TrypLE Select",
  "experimental": "To perform three-dimensional culture, 253G1 cells to be seeded were detached into small spheroids (loose cell masses each having a diameter of approximately 50 μm to 200 μm) each consisting of 20 to 40 cells with 5 mM EDTA. The detached 4.9×10^5 253G cells (small spheroids obtained through chemical disrupting) were seeded in an mTeSR1 medium (10 mL) containing the ROCK (Rho-associated kinase) inhibitor Y27632 (Wako Pure Chemical Industries, Ltd., 10 μM) or an mTeSR1 medium (10 mL) free of the ROCK inhibitor Y27632 in a 10 mL RWV vessel (diameter: 5 cm; Synthecon, Incorporated), and rotary-cultured with an RWV bioreactor (Synthecon, Incorporated) at 37° C. and 8 rpm for 3 days. After culturing, a photograph of a phase contrast image of spherical spheroids produced in the culture medium was taken with the inverted microscope Axio Observer (Carl Zeiss) (FIG. 1). In addition, the diameter of each spherical spheroid was measured, and the size distribution was investigated (FIG. 2).\nSubsequently, the spherical spheroids were collected, and disrupted by pipetting with a pipette to disperse the cells. The number of the cells was counted by using the automated cell counter, Countess™ (Invitrogen). From the total number of the cells in the culture medium, the proliferation rate relative to the number of the cells seeded (4.9×10^5 cells) was calculated (total number of cells/4.9×10^5 cells).\nTo determine a more suitable ROCK inhibitor concentration, 253G1 cells were rotary-cultured for 3 days under the same conditions as in the above except that three ROCK inhibitor concentrations (3 μM, 10 μM, or 30 μM) were used. After culturing, the number of spherical spheroids formed was 10 in the case of 3 μM, 50 in the case of 10 μM, and 20 in the case of 30 μM.\nTo determine a more suitable number of cells to be seeded, 253G1 cells detached into small spheroids each consisting of approximately 20 to 40 cells with 5 mM EDTA and TrypLE™ Select were seeded at 4.27×10^5, 8.55×10^5, or 1.28×10^6 cells in a 10 mL RWV vessel, and rotary-cultured for 5 days in an mTeSR1 medium containing or free of the ROCK inhibitor Y27632 (10 μM) by the same method as in the above (1). After culturing, the number of the cells was counted and the proliferation rate was calculated in the same manner as in the above.\nFurther, the 253G1 cells detached into small spheroids each consisting of approximately 20 to 40 cells with only 5 mM EDTA were seeded in a 10 mL RWV vessel at a number of cells seeded in the above preferred range, and rotary-cultured in a 10 μM ROCK inhibitor Y27632-containing mTeSR1 medium (10 mL) for 3 days.",
  "key": {"[1]": {"settings": "10 μM in mTeSR1, 4.9×10^5 cells seeded, 10 mL RWV vessel, 8 rpm, 3 days, detached with 5 mM EDTA"}, "[2]": {"settings": "1st run, 10 μM, 4.9 × 10^5 cells seeded, 10 mL vessel, 3 days, only 5 mM EDTA"}, "[3]": {"settings": "2nd run, 10 μM, 4.1 × 10^5 cells seeded, 10 mL vessel, 3 days, only 5 mM EDTA"}},
  "data": [
    {"smiles": "C[C@@H](N)[C@H]1CC[C@H](C(=O)Nc2ccncc2)CC1.Cl.Cl.O", "note": "(relative stereo) [Y27632, (R)-(+)-trans-N-(4-pyridyl)-4-(1-aminoethyl)-cyclohexanecarboxamide.2HClH2O]", "values": [
      {"measurement": "Number of spherical spheroids formed", "setting": "3 μM, 10 mL vessel, 3 days", "result": 10},
      {"measurement": "Proliferation rate (total number of cells / cells seeded)", "setting": "[1]", "result": 6.5, "unit": "fold"},
      {"measurement": "Total number of cells", "setting": "[1]", "result": "3.1 × 10^6 cells"},
      {"measurement": "Total number of cells", "setting": "10 μM in mTeSR1, 4.9×10^5 cells seeded, 10 mL RWV vessel, 8 rpm, 3 days, detached with 5 mM EDTA, listed as ROCK inhibitor", "result": "3.1×10^6 cells"},
      {"measurement": "Proliferation rate", "setting": "10 μM, 1.28 × 10^6 cells seeded/10 mL vessel", "result": "1.43-fold"},
      {"measurement": "Proliferation rate", "setting": "10 μM, 4.27 × 10^5 cells seeded/10 mL vessel", "result": "4.78-fold"},
      {"measurement": "Formation of spherical spheroids", "setting": "10 μM, 4.9×10^5 cells seeded, 10 mL vessel, 3 days, inhibitor-free medium gave no spheroids", "result": "numerous spherical spheroids were formed"},
      {"measurement": "Proliferation rate", "setting": "10 μM, 8.55 × 10^5 cells seeded/10 mL vessel", "result": "1.93-fold"},
      {"measurement": "Number of spherical spheroids formed", "setting": "10 μM, 10 mL vessel, 3 days", "result": 50},
      {"measurement": "Proliferation rate versus ROCK inhibitor-free medium", "setting": "10 μM, 10 mL vessel, experiment repeated a plurality of times", "result": "significantly increased"},
      {"measurement": "Number of spherical spheroids formed", "setting": "30 μM, 10 mL vessel, 3 days", "result": 20},
      {"measurement": "Number of only cells of spheroids", "setting": "[2]", "result": "2.4 × 10^6 cells"},
      {"measurement": "Number of spheroids", "setting": "[2]", "result": "approximately 130 spheroids"},
      {"measurement": "Proliferation rate of only cells of spheroids", "setting": "[2]", "result": 4.9, "unit": "fold"},
      {"measurement": "Number of only cells of spheroids", "setting": "[3]", "result": "1.4 × 10^6 cells"},
      {"measurement": "Number of spheroids", "setting": "[3]", "result": "approximately 100 spheroids"},
      {"measurement": "Proliferation rate (total number of cells)", "setting": "[3]", "result": 5.85, "unit": "fold"},
      {"measurement": "Proliferation rate of only cells of spheroids", "setting": "[3]", "result": 3.41, "unit": "fold"},
      {"measurement": "Total number of cells", "setting": "[3]", "result": "2.4 × 10^6 cells"}
    ]}
  ]
}
